Measured values: patent US9296723B2, “NAMPT inhibitors” (AbbVie Inc., priority 2012, dated 2016)

Legend:
[1] = target: T1, NAMPT (Homo sapiens, UniProt P43490); assay: Time-Resolved Fluorescence Resonance Energy Transfer (TR-FRET) Binding Assay of NAMPT; settings: 6.8 nM NAMPT, 200 nM probe, equilibrated 3 hours, no substrates
How it was run: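 Compound was mixed with enzyme, probe and antibody and equilibrated 3 h at room temperature. TR-FRET read at Ex 337 nm, Em 520/495 nm. Ratios were normalized to controls and fitted to a four-parameter logistic equation for IC50.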

[2] = target: T1, NAMPT; assay: TR-FRET Binding Assay of NAMPT with PRPP; settings: 2 nM NAMPT, 2 nM probe, 200 µM PRPP and 2.5 mM ATP, equilibrated 16 hours
How it was run: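 TR-FRET probe displacement with 2 nM NAMPT, 2 nM probe and 1 nM Tb-anti-His antibody in the presence of 200 µM PRPP and 2.5 mM ATP, 2% DMSO (all final). Equilibrated 16 hours before reading to permit possible enzymatic modification of compounds.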

[3] = tested on: PC3 cells; assay: NAMPT Cell Proliferation Assay (Cell Titer Glo); type: cell-based; settings: Homo sapiens, PC-3, 120 h, incubated 5 days, cell viability
How it was run: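 PC3 cells (500/well, RPMI with 10% heat-inactivated FBS) were exposed to 10-fold compound dilutions from […] for 5 days at 37 °C, 5% CO2. Viability was read with Cell Titer Glo; IC50 from sigmoidal fit of percent inhibition.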

T1 sequence (P43490 whole entry): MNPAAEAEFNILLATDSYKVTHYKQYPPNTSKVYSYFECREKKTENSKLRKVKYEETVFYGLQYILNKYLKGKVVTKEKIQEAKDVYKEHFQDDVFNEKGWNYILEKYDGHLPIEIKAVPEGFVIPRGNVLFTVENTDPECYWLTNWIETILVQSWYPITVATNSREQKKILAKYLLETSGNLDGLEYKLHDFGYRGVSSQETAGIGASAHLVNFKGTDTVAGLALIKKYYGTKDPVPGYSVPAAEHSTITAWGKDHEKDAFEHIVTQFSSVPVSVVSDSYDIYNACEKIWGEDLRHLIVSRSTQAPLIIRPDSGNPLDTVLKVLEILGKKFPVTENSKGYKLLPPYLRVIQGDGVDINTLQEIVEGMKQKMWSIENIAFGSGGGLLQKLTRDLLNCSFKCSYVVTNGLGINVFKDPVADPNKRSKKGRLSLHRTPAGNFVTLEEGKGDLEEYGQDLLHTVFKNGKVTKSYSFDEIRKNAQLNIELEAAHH

SMILES	IC50 [1] [nM]	IC50 [2] [nM]	IC50 [3] [nM]
O=C(CN1CCCC1)N1CCC(c2ccc(NC(=O)N3CC(c4cccnc4)C3)cc2)CC1 [Example 194, 3-(pyridin-3-yl)-N-{4-[1-(pyrrolidin-1-ylacetyl)piperidin-4-yl]phenyl}azetidine-1-carboxamide]	248	0.592	690
COCCOCC(=O)N1CC(c2ccc(NC(=O)N3CC(c4cccnc4)C3)cc2)C1 [Example 210, N-(4-{1-[(2-methoxyethoxy)acetyl]azetidin-3-yl}phenyl)-3-(pyridin-3-yl)azetidine-1-carboxamide]	206	0.356	218
O=C(Nc1ccc(C2CCN(CC3CCCC3)CC2)cc1)N1CC(c2cccnc2)C1 [Example 231, N-{4-[1-(cyclopentylmethyl)piperidin-4-yl]phenyl}-3-(pyridin-3-yl)azetidine-1-carboxamide]	421	0.225	361
CC(C)(C)CCN1CCC(c2ccc(NC(=O)N3CC(c4cccnc4)C3)cc2)CC1 [Example 233, N-{4-[1-(3,3-dimethylbutyl)piperidin-4-yl]phenyl}-3-(pyridin-3-yl)azetidine-1-carboxamide]	653	0.335	970
CC(C)CN1CCC(c2ccc(NC(=O)N3CC(c4cccnc4)C3)cc2)CC1 [Example 235, N-{4-[1-(2-methylpropyl)piperidin-4-yl]phenyl}-3-(pyridin-3-yl)azetidine-1-carboxamide]	649	0.213	993
CCC(CC)CN1CCC(c2ccc(NC(=O)N3CC(c4cccnc4)C3)cc2)CC1 [Example 237, N-{4-[1-(2-ethylbutyl)piperidin-4-yl]phenyl}-3-(pyridin-3-yl)azetidine-1-carboxamide]	581	0.257	346
CC(C)(C)CN1CCC(c2ccc(NC(=O)N3CC(c4cccnc4)C3)cc2)CC1 [Example 238, N-{4-[1-(2,2-dimethylpropyl)piperidin-4-yl]phenyl}-3-(pyridin-3-yl)azetidine-1-carboxamide]	4010	1.41	746
CCC(C)CN1CCC(c2ccc(NC(=O)N3CC(c4cccnc4)C3)cc2)CC1 (stereo not drawn) [Example 239, N-{4-[1-(2-methylbutyl)piperidin-4-yl]phenyl}-3-(pyridin-3-yl)azetidine-1-carboxamide]	1680	0.2	1510
CCCN1CCC(c2ccc(NC(=O)N3CC(c4cccnc4)C3)cc2)CC1 [Example 241, N-[4-(1-propylpiperidin-4-yl)phenyl]-3-(pyridin-3-yl)azetidine-1-carboxamide]	359	0.255	252
O=C(Nc1ccc(C2CCN(CC3CCOC3)CC2)cc1)N1CC(c2cccnc2)C1 (stereo not drawn) [Example 243, 3-(pyridin-3-yl)-N-{4-[1-(tetrahydrofuran-3-ylmethyl)piperidin-4-yl]phenyl}azetidine-1-carboxamide]	1270	0.326	1310
O=C(Nc1ccc(C2CN(CC3CCCCC3)C2)cc1)N1CC(c2cccnc2)C1 [Example 246, N-{4-[1-(cyclohexylmethyl)azetidin-3-yl]phenyl}-3-(pyridin-3-yl)azetidine-1-carboxamide]	437	0.213	622
CC(C)(C)CCN1CC(c2ccc(NC(=O)N3CC(c4cccnc4)C3)cc2)C1 [Example 247, N-{4-[1-(3,3-dimethylbutyl)azetidin-3-yl]phenyl}-3-(pyridin-3-yl)azetidine-1-carboxamide]	871	0.304	471
O=C(Nc1ccc(C2CN(CC3CC3)C2)cc1)N1CC(c2cccnc2)C1 [Example 248, N-{4-[1-(cyclopropylmethyl)azetidin-3-yl]phenyl}-3-(pyridin-3-yl)azetidine-1-carboxamide]	990	0.228	1380

Stronger by IC50 [1], values ahead:

IC50 [1] [nM]	IC50 [2] [nM]	IC50 [3] [nM]	SMILES
4.19	0.281	8.66	O=C(Nc1ccc(C2CCN(C(=O)c3nccs3)CC2)cc1)N1CC(c2cccnc2)C1 [Example 195, 3-(pyridin-3-yl)-N-{4-[1-(1,3-thiazol-2-ylcarbonyl)piperidin-4-yl]phenyl}azetidine-1-carboxamide]
15	0.281	64.6	O=C(CC1CCCC1)N1CCC(c2ccc(NC(=O)N3CC(c4cccnc4)C3)cc2)CC1 [Example 196, N-{4-[1-(cyclopentylacetyl)piperidin-4-yl]phenyl}-3-(pyridin-3-yl)azetidine-1-carboxamide]
17.8	0.505	22.7	CC(C)C(C)C(=O)N1CCC(c2ccc(NC(=O)N3CC(c4cccnc4)C3)cc2)CC1 (stereo not drawn) [Example 197, N-{4-[1-(2,3-dimethylbutanoyl)piperidin-4-yl]phenyl}-3-(pyridin-3-yl)azetidine-1-carboxamide]
64.2	0.341	47.6	CCCCC(=O)N1CC(c2ccc(NC(=O)N3CC(c4cccnc4)C3)cc2)C1 [Example 198, N-[4-(1-pentanoylazetidin-3-yl)phenyl]-3-(pyridin-3-yl)azetidine-1-carboxamide]
36.4	0.382	17	O=C(CC1C[C@@H]2CC[C@H]1C2)N1CC(c2ccc(NC(=O)N3CC(c4cccnc4)C3)cc2)C1 (stereo partly drawn) [Example 200, N-(4-{1-[(1S,4R)-bicyclo[2.2.1]hept-2-ylacetyl]azetidin-3-yl}phenyl)-3-(pyridin-3-yl)azetidine-1-carboxamide]
51.1	0.327	65.5	CCC(C)CC(=O)N1CC(c2ccc(NC(=O)N3CC(c4cccnc4)C3)cc2)C1 (stereo not drawn) [Example 202, N-{4-[1-(3-methylpentanoyl)azetidin-3-yl]phenyl}-3-(pyridin-3-yl)azetidine-1-carboxamide]
48.6	0.349	60.4	CCC(C)(C)C(=O)N1CC(c2ccc(NC(=O)N3CC(c4cccnc4)C3)cc2)C1 [Example 204, N-{4-[1-(2,2-dimethylbutanoyl)azetidin-3-yl]phenyl}-3-(pyridin-3-yl)azetidine-1-carboxamide]
49.1	0.26	63.4	CC(C)(C)C(=O)N1CC(c2ccc(NC(=O)N3CC(c4cccnc4)C3)cc2)C1 [Example 206, N-{4-[1-(2,2-dimethylpropanoyl)azetidin-3-yl]phenyl}-3-(pyridin-3-yl)azetidine-1-carboxamide]
48.6	0.473	73.7	CC(C)CC(=O)N1CC(c2ccc(NC(=O)N3CC(c4cccnc4)C3)cc2)C1 [Example 208, N-{4-[1-(3-methylbutanoyl)azetidin-3-yl]phenyl}-3-(pyridin-3-yl)azetidine-1-carboxamide]
40.9	0.464	20.6	O=C(CC1CCCCC1)N1CC(c2ccc(NC(=O)N3CC(c4cccnc4)C3)cc2)C1 [Example 212, N-{4-[1-(cyclohexylacetyl)azetidin-3-yl]phenyl}-3-(pyridin-3-yl)azetidine-1-carboxamide]
75.8	0.289	43.7	O=C(Nc1ccc(C2CN(C(=O)C3CCCC3)C2)cc1)N1CC(c2cccnc2)C1 [Example 214, N-{4-[1-(cyclopentylcarbonyl)azetidin-3-yl]phenyl}-3-(pyridin-3-yl)azetidine-1-carboxamide]
18.4	0.256	20.5	O=C(Nc1ccc(C2CN(C(=O)c3ccoc3)C2)cc1)N1CC(c2cccnc2)C1 [Example 216, N-{4-[1-(furan-3-ylcarbonyl)azetidin-3-yl]phenyl}-3-(pyridin-3-yl)azetidine-1-carboxamide]
171	0.451	188	COCC(=O)N1CC(c2ccc(NC(=O)N3CC(c4cccnc4)C3)cc2)C1 [Example 218, N-{4-[1-(methoxyacetyl)azetidin-3-yl]phenyl}-3-(pyridin-3-yl)azetidine-1-carboxamide]
10.4	0.34	4.15	Cc1ccsc1C(=O)N1CC(c2ccc(NC(=O)N3CC(c4cccnc4)C3)cc2)C1 [Example 220, N-(4-{1-[(3-methylthiophen-2-yl)carbonyl]azetidin-3-yl}phenyl)-3-(pyridin-3-yl)azetidine-1-carboxamide]
10.7	0.183	11.9	O=C(Nc1ccc(C2CN(C(=O)c3cccs3)C2)cc1)N1CC(c2cccnc2)C1 [Example 222, 3-(pyridin-3-yl)-N-{4-[1-(thiophen-2-ylcarbonyl)azetidin-3-yl]phenyl}azetidine-1-carboxamide]
26	0.333	20.7	O=C(Nc1ccc(C2CN(C(=O)c3ccco3)C2)cc1)N1CC(c2cccnc2)C1 [Example 224, N-{4-[1-(furan-2-ylcarbonyl)azetidin-3-yl]phenyl}-3-(pyridin-3-yl)azetidine-1-carboxamide]
169	0.44	200	CCC(=O)N1CC(c2ccc(NC(=O)N3CC(c4cccnc4)C3)cc2)C1 [Example 226, N-[4-(1-propanoylazetidin-3-yl)phenyl]-3-(pyridin-3-yl)azetidine-1-carboxamide]
